Results as given in patent US11178871B2, “Herbicidal pyrimidine compounds” (BASF SE, priority 2016, dated 2021).

Assays:
Format in all cases: in vivo
Alopecurus myosuroides = test: greenhouse test, post-emergence treatment, ALOMY; conditions: post-emergence
In short: (§1)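 Post-emergence: plants grown in loamy sand (~3.0% humus) to 3-15 cm, then sprayed with active ingredient suspended or emulsified in water; kept at 10-25 °C or 20-35 °C by species. Damage rated visually after 2-4 weeks, 0 (none) to 100 (complete destruction of aerial parts).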

Amaranthus retroflexus = test: greenhouse test, post-emergence treatment, AMARE
In short: as §1

Echinocloa crus-galli [1] = test: greenhouse test, post-emergence treatment, ECHCG
In short: as §1

Apera spica-venti [2] = test: greenhouse test, post-emergence treatment, APESV
Source text: (§2) The culture containers used were plastic flowerpots containing loamy sand with approximately 3.0% of humus as the substrate. The seeds of the test plants were sown separately for each species.
(§3) For the post-emergence treatment, the test plants were first grown to a height of 3 to 15 cm, depending on the plant habit, and only then treated with the active ingredients which had been suspended or emulsified in water. For this purpose, the test plants were either sown directly and grown in the same containers, or they were first grown separately as seedlings and transplanted into the test containers a few days prior to treatment.
(§4) Depending on the species, the plants were kept at 10-25° C. or 20-35° C., respectively.
(§5) The test period extended over 2 to 4 weeks. During this time, the plants were tended, and their response to the individual treatments was evaluated.
(§6) Evaluation was carried out using a scale from 0 to 100. 100 means no emergence of the plants, or complete destruction of at least the aerial moieties, and 0 means no damage, or normal course of growth. A good herbicidal activity is given at values of at least 70 and a very good herbicidal activity is given at values of at least 85.
(§7) The plants used in the greenhouse experiments were of the following species: […]

Matricaria inodora = test: greenhouse test, post-emergence treatment, MATIN; conditions: 2000 g/ha
Source text: as §2, §3, §4, §5, §6, §7

Abutilon theophrasti = test: greenhouse test, post-emergence treatment, ABUTH; conditions: 2000 g/ha
Source text: as §2, §3, §4, §5, §6, §7

Setaria viridis = test: greenhouse test, post-emergence treatment, SETVI
In short: as §1

Avena fatua = test: greenhouse test, post-emergence treatment, AVEFA; conditions: 2000 g/ha
In short: as §1

Poa annua = test: greenhouse test, pre-emergence treatment, POAAN; conditions: 2000 g/ha
Source text: as §2
For the pre-emergence treatment, the active ingredients, which had been suspended or emulsified in water, were applied directly after sowing by means of finely distributing nozzles. The containers were irrigated gently to promote germination and growth and subsequently covered with transparent plastic hoods until the plants had rooted. This cover caused uniform germination of the test plants, unless this had been impaired by the active ingredients.
as §4, §5, §6, §7

Apera spica-venti [3] = test: greenhouse test, pre-emergence treatment, APESV
In short: (§8)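 Pre-emergence greenhouse test: seeds sown per species in loamy sand (about 3.0% humus), aqueous suspension or emulsion of active sprayed right after sowing, pots covered until rooting. Kept at 10-25 °C or 20-35 °C for 2 to 4 weeks; damage scored 0 (none) to 100 (no emergence/complete destruction).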

Echinocloa crus-galli [4] = test: greenhouse test, pre-emergence treatment, ECHCG; conditions: 2000 g/ha
In short: as §8

Polygonum convolvulus = test: greenhouse test, post-emergence treatment, POLCO
Source text: as §2, §3, §4, §5, §6, §7

[5] = 1000 g/ha, printed under post-emergence, method not restated

## Clc1ccccc1-c1cnc(C2CC2)nc1-c1ncco1 [Ex. 315]
Alopecurus myosuroides; 2000 g/ha
  herbicidal activity: very good (a very good herbicidal activity is given at values of at least 85)
Amaranthus retroflexus; 2000 g/ha
  herbicidal activity: very good (a very good herbicidal activity is given at values of at least 85)
Echinocloa crus-galli [1]; 2000 g/ha, printed under post-emergence, method not restated
  herbicidal activity: very good (a very good herbicidal activity is given at values of at least 85)
Echinocloa crus-galli [1]; post-emergence, 2000 g/ha
  herbicidal activity: very good (a very good herbicidal activity is given at values of at least 85)
Apera spica-venti [2]; 2000 g/ha
  herbicidal activity: very good (a very good herbicidal activity is given at values of at least 85)

## Clc1ccc(Cl)c(/C=C/c2nc(C3CC3)ncc2-c2ccccc2Cl)n1 [Ex. 257]
Matricaria inodora
  herbicidal activity: good (A good herbicidal activity is given at values of at least 70)

## Cc1nc(C)c(-c2nc(C3CC3)ncc2-c2c(F)cccc2Cl)o1 [Ex. 309]
Alopecurus myosuroides; 1000 g/ha
  herbicidal activity: very good (a very good herbicidal activity is given at values of at least 85)
Amaranthus retroflexus; 1000 g/ha
  herbicidal activity: very good (a very good herbicidal activity is given at values of at least 85)
Echinocloa crus-galli [1]; post-emergence, 1000 g/ha
  herbicidal activity: very good (a very good herbicidal activity is given at values of at least 85)
Apera spica-venti [2]; 1000 g/ha
  herbicidal activity: very good (a very good herbicidal activity is given at values of at least 85)

## Clc1ccccc1-c1cnc(C2CC2)nc1-c1cccs1 [Ex. 29]
Matricaria inodora
  herbicidal activity: very good (a very good herbicidal activity is given at values of at least 85)
Amaranthus retroflexus; 2000 g/ha
  herbicidal activity: very good (a very good herbicidal activity is given at values of at least 85)

## COC(=O)C(OC(C)=O)c1nc(C2CC2)ncc1-c1ccccc1Cl (stereo not drawn) [Ex. 222]
Matricaria inodora
  herbicidal activity: very good (a very good herbicidal activity is given at values of at least 85)
Amaranthus retroflexus; 2000 g/ha
  herbicidal activity: very good (a very good herbicidal activity is given at values of at least 85)
Abutilon theophrasti
  herbicidal activity: very good (a very good herbicidal activity is given at values of at least 85)

## Cc1cnc(-c2nc(C3CC3)ncc2-c2ccccc2Cl)o1 [Ex. 314]
Amaranthus retroflexus; 1000 g/ha
  herbicidal activity: very good (a very good herbicidal activity is given at values of at least 85)
Echinocloa crus-galli [1]; [5]
  herbicidal activity: very good (a very good herbicidal activity is given at values of at least 85)
Echinocloa crus-galli [1]; post-emergence, 1000 g/ha
  herbicidal activity: very good (a very good herbicidal activity is given at values of at least 85)
Apera spica-venti [2]; 1000 g/ha
  herbicidal activity: very good (a very good herbicidal activity is given at values of at least 85)
Setaria viridis; 1000 g/ha
  herbicidal activity: very good (a very good herbicidal activity is given at values of at least 85)

## Fc1cccc(Cl)c1-c1cnc(C2CC2)nc1-c1ccoc1 [Ex. 41]
Matricaria inodora
  herbicidal activity: very good (a very good herbicidal activity is given at values of at least 85)
Alopecurus myosuroides; 2000 g/ha
  herbicidal activity: very good (a very good herbicidal activity is given at values of at least 85)

## Clc1ccccc1-c1cnc(C2CC2)nc1-c1ccncn1 [Ex. 225]
Avena fatua
  herbicidal activity: very good (a very good herbicidal activity is given at values of at least 85)
Alopecurus myosuroides; 2000 g/ha
  herbicidal activity: very good (a very good herbicidal activity is given at values of at least 85)
Echinocloa crus-galli [1]; post-emergence, 2000 g/ha
  herbicidal activity: very good (a very good herbicidal activity is given at values of at least 85)
Poa annua
  herbicidal activity: very good (a very good herbicidal activity is given at values of at least 85)
Apera spica-venti [3]; 2000 g/ha
  herbicidal activity: very good (a very good herbicidal activity is given at values of at least 85)
Echinocloa crus-galli [4]
  herbicidal activity: very good (a very good herbicidal activity is given at values of at least 85)

## OC(Cc1nc(C2CC2)ncc1-c1ccccc1Cl)c1c(Cl)ccc(Cl)c1Cl (stereo not drawn) [Ex. 231]
Matricaria inodora
  herbicidal activity: good (A good herbicidal activity is given at values of at least 70)
Echinocloa crus-galli [1]; post-emergence, 2000 g/ha
  herbicidal activity: very good (a very good herbicidal activity is given at values of at least 85)

## Cc1ccc(-c2nc(C3CC3)ncc2-c2ccccc2I)o1 [Ex. 108]
Alopecurus myosuroides; 500 g/ha
  herbicidal activity: good (A good herbicidal activity is given at values of at least 70)
Polygonum convolvulus; 500 g/ha
  herbicidal activity: very good (a very good herbicidal activity is given at values of at least 85)

## OCc1nc(C2CC2)ncc1-c1ccccc1Br [Ex. 13]
Alopecurus myosuroides; 250 g/ha
  herbicidal activity: very good (a very good herbicidal activity is given at values of at least 85)
Echinocloa crus-galli [1]; post-emergence, 250 g/ha
  herbicidal activity: very good (a very good herbicidal activity is given at values of at least 85)
Apera spica-venti [3]; 250 g/ha
  herbicidal activity: very good (a very good herbicidal activity is given at values of at least 85)
Polygonum convolvulus; 250 g/ha
  herbicidal activity: very good (a very good herbicidal activity is given at values of at least 85)

## CCCc1nc(C)c(-c2nc(C3CC3)ncc2-c2ccccc2Cl)o1 [Ex. 313]
Alopecurus myosuroides; 1000 g/ha
  herbicidal activity: very good (a very good herbicidal activity is given at values of at least 85)
Echinocloa crus-galli [1]; [5]
  herbicidal activity: very good (a very good herbicidal activity is given at values of at least 85)
Echinocloa crus-galli [1]; post-emergence, 1000 g/ha
  herbicidal activity: very good (a very good herbicidal activity is given at values of at least 85)
Apera spica-venti [2]; 1000 g/ha
  herbicidal activity: very good (a very good herbicidal activity is given at values of at least 85)
Setaria viridis; 1000 g/ha
  herbicidal activity: very good (a very good herbicidal activity is given at values of at least 85)

## CC1OC1c1nc(C2CC2)ncc1-c1ccccc1Br (stereo not drawn) [Ex. 213]
Avena fatua
  herbicidal activity: very good (a very good herbicidal activity is given at values of at least 85)
Alopecurus myosuroides; 2000 g/ha
  herbicidal activity: very good (a very good herbicidal activity is given at values of at least 85)
Echinocloa crus-galli [1]; post-emergence, 2000 g/ha
  herbicidal activity: very good (a very good herbicidal activity is given at values of at least 85)
Poa annua
  herbicidal activity: good (A good herbicidal activity is given at values of at least 70)
Apera spica-venti [3]; 2000 g/ha
  herbicidal activity: good (A good herbicidal activity is given at values of at least 70)
Echinocloa crus-galli [4]
  herbicidal activity: good (A good herbicidal activity is given at values of at least 70)

## CSc1ncc(-c2nc(C3CC3)ncc2-c2ccccc2Cl)cn1 [Ex. 248]
Alopecurus myosuroides; 2000 g/ha
  herbicidal activity: very good (a very good herbicidal activity is given at values of at least 85)
Echinocloa crus-galli [1]; post-emergence, 2000 g/ha
  herbicidal activity: very good (a very good herbicidal activity is given at values of at least 85)
Poa annua
  herbicidal activity: very good (a very good herbicidal activity is given at values of at least 85)
Apera spica-venti [3]; 2000 g/ha
  herbicidal activity: very good (a very good herbicidal activity is given at values of at least 85)
Setaria viridis; 2000 g/ha
  herbicidal activity: very good (a very good herbicidal activity is given at values of at least 85)
Echinocloa crus-galli [4]
  herbicidal activity: very good (a very good herbicidal activity is given at values of at least 85)

## COC(=O)C(O)(CO)c1nc(C2CC2)ncc1-c1ccccc1Cl (stereo not drawn) [Ex. 230]
Matricaria inodora
  herbicidal activity: good (A good herbicidal activity is given at values of at least 70)

## CC(C)=CC(O)Cc1nc(C2CC2)ncc1-c1ccccc1Cl (stereo not drawn) [Ex. 223]
Amaranthus retroflexus; 2000 g/ha
  herbicidal activity: very good (a very good herbicidal activity is given at values of at least 85)
Echinocloa crus-galli [1]; post-emergence, 2000 g/ha
  herbicidal activity: very good (a very good herbicidal activity is given at values of at least 85)
Poa annua
  herbicidal activity: very good (a very good herbicidal activity is given at values of at least 85)
Apera spica-venti [3]; 2000 g/ha
  herbicidal activity: very good (a very good herbicidal activity is given at values of at least 85)
Abutilon theophrasti
  herbicidal activity: very good (a very good herbicidal activity is given at values of at least 85)
Echinocloa crus-galli [4]
  herbicidal activity: very good (a very good herbicidal activity is given at values of at least 85)
